In patent US20100009956A1, “NOVEL SUBSTITUTED PYRIMIDINES AS CYSTEINE PROTEASE INHIBITORS” (Glaxo Group Limited , a corporation, priority 2006, published 2010):
Counter-ions that a name gives are not always drawn. Like-named read-outs stand apart in the source and are kept apart here.

Assays:
Format in all cases: biochemical
[1] = molecular target: Falcipain-3 (Plasmodium falciparum, UniProt Q8IIL0); assay: Falcipain-3 enzymatic assay (assay 1)
Description: (§1) Assay 1) Determination of Falcipain-2, Falcipain-3, Vivapain-2, Cathepsin K Cathepsin S, Cathepsin L, and Cathepsin B Proteolytic Catalytic Activity
(§2) Assays for Falcipain-2, Falcipain-3, and Vivapain-2 are carried out with parasitic recombinant enzymes. Cathepsins K, S, L, and B are carried out with human recombinant enzymes. Standard assay conditions for the determination of kinetic constants used a fluorogenic peptide substrate, typically H-D-VLR-AFC (Falcipain-2, Falcipain-3, Vivapain-2), Z-FR-AFC (Cathepsin K, L, B), or KQKLR-AMC (Cathepsin S) and are determined in 100 mM sodium acetate, pH 5.5, containing 10 mM DTT and 0.5 mM CHAPS (Falcipain-2, Falcipain-3, Vivapain-2), and 100 mM sodium acetate, pH 5.5, containing 5 mM L-cysteine, 1 mM CHAPS and 5 mM EDTA (Cathepsin K, L, B), or 50 mM MES, pH 6.5, containing 0.5 mM CHAPS, 10 mM L-CYS, 5 mM EDTA (Cathepsin S). Stock substrate solutions are prepared at 20 mM in DMSO. The activity assays contained 30 uM substrate (Falcipain-2, Falcipain-3, Vivapain-2), 20 uM substrate (Cathepsin K), 25 uM substrate (Cathepsin B), 5 uM substrate (Cathepsin L), and 30 uM substrate (Cathepsin S). All assays contained 1% DMSO. […] All assays are conducted at ambient temperature as end point assays being quenched after 60 minutes with the exception of Cathepsin S at 90 minutes, with 16.6 uM E-64 in 1% DMSO. Product formation (AFC or AMC) is determined from fluorescence (excitation at 405 nm; emission at 530 nm, AFC, or excitation at 360 nm; emission at 460 nm, AMC) monitored with a LJL Aquest (Molecular Devices) fluorescent plate reader. In the case of kinetic reads (used in mechanism of action studies), the reaction is not quenched but is read in the plate reader every 3 minutes for approximately 90 minutes. In addition, the mechanism of action studies for Falcipain-2 utilize Z-LR-AMC as the substrate. Product formation is determined from the fluorescence of AMC, measured with a LJL Acquest (Molecular Devices) fluorescent plate reader (excitation at 360 nm; emission at 460 nm).
(§3) Potential inhibitors are evaluated using the quenched read (endpoint) method. Assays are carried out in the presence of variable concentrations of test compound. Reactions are initiated by addition of enzyme and substrate to wells containing inhibitor stamped in 100% DMSO. For endpoint assays, the reaction is quenched with the addition of E64. Dose response data is fit to an IC50 curve with preset fitting tools according to equation 1:
(§4) y=a+(b−a)/(1+(10^x/10^c)^d) (1)
(§5) where y is the response at a particular inhibitor concentration x, a is the minimum response value, b is the maximum response value, c is the IC50, and d is the slope of the IC50 curve. Assuming the compound is a competitive inhibitor, the apparent KI can be calculated from IC50, as shown in equation 2: […]

[2] = molecular target: Falcipain-2 (Plasmodium falciparum, UniProt Q8I6U4); assay: Falcipain-2 enzymatic assay (assay 1)
Falcipain-2, sequence (Q8I6U4 244-484): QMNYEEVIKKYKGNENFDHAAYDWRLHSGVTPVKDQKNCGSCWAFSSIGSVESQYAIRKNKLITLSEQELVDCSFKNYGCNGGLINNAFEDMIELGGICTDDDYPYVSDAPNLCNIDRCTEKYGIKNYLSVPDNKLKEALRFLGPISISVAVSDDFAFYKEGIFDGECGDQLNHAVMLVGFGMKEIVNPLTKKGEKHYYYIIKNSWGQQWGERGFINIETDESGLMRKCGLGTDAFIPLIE
Description: as §1, §2, §3, §4, §5

[3] = molecular target: T1, Cathepsin K (Homo sapiens, UniProt P43235); assay: Cathepsin K enzymatic assay (assay 1); conditions: human recombinant enzyme, Z-FR-AFC substrate, pH 5.5
T1 sequence (P43235 115-329): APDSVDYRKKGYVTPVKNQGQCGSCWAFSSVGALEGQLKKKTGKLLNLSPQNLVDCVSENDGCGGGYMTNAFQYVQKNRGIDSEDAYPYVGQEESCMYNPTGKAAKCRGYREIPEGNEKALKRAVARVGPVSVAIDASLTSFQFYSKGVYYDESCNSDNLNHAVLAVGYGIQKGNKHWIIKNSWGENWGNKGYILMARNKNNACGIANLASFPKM
Description: as §1, §2, §3, §4, §5

Falcipain-3, sequence (Q8IIL0 243-492): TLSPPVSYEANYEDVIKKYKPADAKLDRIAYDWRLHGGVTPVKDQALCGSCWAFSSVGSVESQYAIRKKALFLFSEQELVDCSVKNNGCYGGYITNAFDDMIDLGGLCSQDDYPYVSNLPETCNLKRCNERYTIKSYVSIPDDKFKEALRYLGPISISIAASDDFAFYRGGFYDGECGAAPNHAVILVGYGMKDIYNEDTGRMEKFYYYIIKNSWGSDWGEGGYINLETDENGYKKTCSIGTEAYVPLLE

`CN1CCN(C2CCN(Cc3ccc(C(=O)NN(c4nc(C#N)ncc4Br)C4CCCC4)cc3)CC2)CC1` [Example 10, N′-(5-bromo-2-cyano-4-pyrimidinyl)-N′-cyclopentyl-4-{[4-(4-methyl-1-piperazinyl)-1-piperidinyl]methyl}benzohydrazide trifluoroacetate] was tested, and the IC50 [1] was 2.5 to 15 nM, the IC50 [2] was under 1 nM and the IC50 [3] was under 1.5 nM.
Work on `CN1CCN(C2CCN(Cc3cccc(C(=O)NN(c4nc(C#N)ncc4Br)C4CCCC4)c3)CC2)CC1` [Example 11, N′-(5-bromo-2-cyano-4-pyrimidinyl)-N′-cyclopentyl-3-{[4-(4-methyl-1-piperazinyl)-1-piperidinyl]methyl}benzohydrazide trifluoroacetate] yielded an IC50 [1] of 2.5 to 15 nM, an IC50 [2] of under 1 nM and an IC50 [3] of under 1.5 nM.
Work on `CN1CCN(C(=O)C2CCN(Cc3cccc(C(=O)NN(c4nc(C#N)ncc4Br)C4CCCC4)c3)CC2)CC1` [Example 12, N′-(5-bromo-2-cyano-4-pyrimidinyl)-N′-cyclopentyl-3-({4-[(4-methyl-1-piperazinyl)carbonyl]-1-piperidinyl}methyl)benzohydrazide trifluoroacetate] yielded an IC50 [1] of 2.5 to 15 nM, an IC50 [2] of under 1 nM and an IC50 [3] of under 1.5 nM.
For `CN1CCCC(CN2CCN(Cc3cccc(C(=O)NN(c4nc(C#N)ncc4Br)C4CCCC4)c3)CC2)C1` (stereo not drawn) [Example 14, N′-(5-bromo-2-cyano-4-pyrimidinyl)-N′-cyclopentyl-3-({4-[(1-methyl-3-piperidinyl)methyl]-1-piperazinyl}methyl)benzohydrazide trifluoroacetate], the IC50 [1] was 2.5 to 15 nM, the IC50 [2] was under 1 nM and the IC50 [3] was under 1.5 nM.
Molecule `CN1CCC(CN2CCN(Cc3cccc(C(=O)NN(c4nc(C#N)ncc4Br)C4CCCC4)c3)CC2)CC1` [Example 15, N′-(5-bromo-2-cyano-4-pyrimidinyl)-N′-cyclopentyl-3-({4-[(1-methyl-4-piperidinyl)methyl]-1-piperazinyl}methyl)benzohydrazide trifluoroacetate] has an IC50 ([1]; parasitic recombinant enzyme, H-D-VLR-AFC substrate, pH 5.5, endpoint read, read-out: Falcipain-3 IC50) of 2.5 to 15 nM, an IC50 [2] of under 1 nM and an IC50 [3] of under 1.5 nM.
With `N#Cc1ncc(Br)c(N(NC(=O)c2ccc(CN3CCC(N4CCOCC4)CC3)cc2)C2CCCCC2)n1` [Example 18, N′-(5-bromo-2-cyano-4-pyrimidinyl)-N′-cyclohexyl-4-{([4-(4-morpholinyl)-1-piperidinyl]methyl}benzohydrazide trifluoroacetate] the IC50 [1] was 2.5 to 15 nM, the IC50 [2] was under 1 nM and the IC50 [3] was under 1.5 nM.
For `CN1CCC(CN2CCN(Cc3ccc(C(=O)NN(c4nc(C#N)ncc4Br)C4CCCCC4)cc3)CC2)CC1` [Example 19, N′-(5-bromo-2-cyano-4-pyrimidinyl)-N′-cyclohexyl-4-({4-[(-methyl-4-piperidinyl)methyl]-1-piperazinyl}methyl)benzohydrazide trifluoroacetate], the IC50 [1] was 2.5 to 15 nM, the IC50 [2] was under 1 nM and the IC50 [3] was under 1.5 nM.
`CN1CCN(C2CCN(Cc3cccc(C(=O)NN(c4nc(C#N)ncc4Br)C4CCCCC4)c3)CC2)CC1` [Example 20, N′-(5-bromo-2-cyano-4-pyrimidinyl)-N′-cyclohexyl-3-{([4-(4-methyl-1-piperazinyl)-1-piperidinyl]methyl}benzohydrazide trifluoroacetate] was tested, and the IC50 [1] was 15 to 150 nM, the IC50 [2] was under 1 nM and the IC50 [3] was under 1.5 nM.
`N#Cc1ncc(Br)c(N(NC(=O)c2ccc(CN3CCC(O)CC3)cc2)C2CCCCC2)n1` [Example 21, N′-(5-bromo-2-cyano-4-pyrimidinyl)-N′-cyclohexyl-4-[(4-hydroxy-1-piperidinyl)methyl]benzohydrazide trifluoroacetate] was tested, and the IC50 [1] was 2.5 to 15 nM, the IC50 [2] was under 1 nM and the IC50 [3] was under 1.5 nM.
`CN1CCN(C(=O)C2CCN(Cc3ccc(C(=O)NN(c4nc(C#N)ncc4Br)C4CCCCC4)cc3)CC2)CC1` [Example 22, N′-(5-bromo-2-cyano-4-pyrimidinyl)-N′-cyclohexyl-4-({4-[(4-methyl-1-piperazinyl)carbonyl]-1-piperidinyl}methyl)benzohydrazide trifluoroacetate] gave an IC50 [1] of 2.5 to 15 nM, an IC50 [2] of under 1 nM and an IC50 [3] of under 1.5 nM.
In the case of `CN1CCN(C(=O)C2CCN(Cc3cccc(C(=O)NN(c4nc(C#N)ncc4Br)C4CCCCC4)c3)CC2)CC1` [Example 23, N′-(5-bromo-2-cyano-4-pyrimidinyl)-N′-cyclohexyl-3-({4-[(4-methyl-1-piperazinyl)carbonyl]-1-piperidinyl}methyl)benzohydrazide trifluoroacetate], the IC50 [1] is reported as 2.5 to 15 nM, the IC50 [2] is reported as under 1 nM and the IC50 [3] is reported as under 1.5 nM.
With `N#Cc1ncc(Br)c(N(NC(=O)c2cccc(CN3CCC(N4CCOCC4)CC3)c2)C2CCCCC2)n1` [Example 24, N′-(5-bromo-2-cyano-4-pyrimidinyl)-N′-cyclohexyl-3-{[4-(4-morpholinyl)-1-piperidinyl]methyl}benzohydrazide trifluoroacetate] the IC50 [1] was 2.5 to 15 nM, the IC50 [2] was under 1 nM and the IC50 [3] was under 1.5 nM.
With `CN1CCCC(CN2CCN(Cc3ccc(C(=O)NN(c4nc(C#N)ncc4Br)C4CCCCC4)cc3)CC2)C1` (stereo not drawn) [Example 25, N′-(5-bromo-2-cyano-4-pyrimidinyl)-N′-cyclohexyl-4-({4-[(-methyl-3-piperidinyl)methyl]-1-piperazinyl}methyl)benzohydrazide trifluoroacetate] the IC50 [1] was 2.5 to 15 nM, the IC50 [2] was under 1 nM and the IC50 [3] was under 1.5 nM.
`CN1CCC(CN2CCN(Cc3ccc(C(=O)NN(c4nc(C#N)ncc4Br)C4CCOCC4)cc3)CC2)CC1` [Example 30, N′-(5—Bromo-2-cyano-4-pyrimidinyl)-4-({4-[(1-methyl-4-piperidinyl)methyl]-1-piperazinyl}methyl)-N′-(tetrahydro-2H-pyran-4-yl)benzohydrazide trifluoroacetate] showed an IC50 [1] of 2.5 to 15 nM, an IC50 [2] of 1 to 2.5 nM and an IC50 [3] of under 17 nM.
With `CN1CCCC(CN2CCN(Cc3ccc(C(=O)NN(c4nc(C#N)ncc4Br)C4CCOCC4)cc3)CC2)C1` (stereo not drawn) [Example 31, N′-(5—Bromo-2-cyano-4-pyrimidinyl)-4-({4-[(1-methyl-3-piperidinyl)methyl]-1-piperazinyl}methyl)-N′-(tetrahydro-2H-pyran-4-yl)benzohydrazide trifluoroacetate] the IC50 [1] was 15 to 150 nM, the IC50 [2] was under 1 nM and the IC50 [3] was under 17 nM.
`CN1CCN(C(=O)C2CCN(Cc3ccc(C(=O)NN(c4nc(C#N)ncc4Br)C4CCOCC4)cc3)CC2)CC1` [Example 32, N′-(5—Bromo-2-cyano-4-pyrimidinyl)-4-({4-[(4-methyl-1-piperazinyl)carbonyl]-1-piperidinyl}methyl)-N′-(tetrahydro-2H-pyran-4-yl)benzohydrazide trifluoroacetate] showed an IC50 [1] of 2.5 to 15 nM, an IC50 [2] of under 1 nM and an IC50 [3] of under 17 nM.
Work on `N#Cc1ncc(Br)c(N(NC(=O)c2ccc(CN3CC(N4CCCC4)C3)cc2)C2CCOCC2)n1` [Example 33, N′-(5-bromo-2-cyano-4-pyrimidinyl)-4-{[3-(1-pyrrolidinyl)-1-azetidinyl]methyl}-N′-(tetrahydro-2H-pyran-4-yl)benzohydrazide trifluoroacetate] yielded an IC50 [1] of 15 to 150 nM, an IC50 [2] of under 1 nM and an IC50 [3] of under 17 nM.
Molecule `CN1CCC(CN2CCN(Cc3ccc(C(=O)NN(c4nc(C#N)ncc4Cl)C4CCOCC4)cc3)CC2)CC1` [Example 35, N′-(5-Chloro-2-cyano-4-pyrimidinyl)-4-({4-[(1-methyl-4-piperidinyl)methyl]-1-piperazinyl}methyl)-N′-(tetrahydro-2H-pyran-4-yl)benzohydrazide trifluoroacetate] has an IC50 [1] of 15 to 150 nM, an IC50 [2] of 1 to 2.5 nM and an IC50 [3] of under 17 nM.
